Columns and labels:
[1] = test system: pre-cultured PBMCs (NSP12-specific T cells); assay: IFN-γ ELISpot with single 15-mer peptides after 11–13 days in vitro peptide-pool T-cell expansion; format: cell-based, human; settings: single NSP12 15-mer peptides
CD4+ T cells = assay: Peptide-specific CD4+ T-cell response: IFN-γ ELISpot validated by intracellular cytokine staining after in vitro expansion; format: cell-based, human; settings: COVID-19 patients (acute or resolved, n = 27); peptide 10 µg/ml; share of individuals with a positive response
11 DRB1-HLA molecules = assay: In vitro HLA class II binding, number of DRB1 alleles bound; design: species or system human; settings: number of the 11 DRB1-HLA molecules tested bound with an affinity of 1,000 nM or better (in vitro)
HLA DRB1*13:02 = HLA DRB1*13:02 (Homo sapiens, UniProt P01903+P01911, A100E/A169T/K41T/L162R/M171V/P40S/Q125H/Q178H/Q39Y/Q99D/R42S/S66N/T262R/V115G/W38E/Y61H); assay: biochemical; format: binding; settings: binder threshold 1,000 nM, read-out: In vitro (IC50 nM) DRB1*13:02
HLA DRB1*13:02, sequence (P01903 26-254 limits assumed, other chains not shown): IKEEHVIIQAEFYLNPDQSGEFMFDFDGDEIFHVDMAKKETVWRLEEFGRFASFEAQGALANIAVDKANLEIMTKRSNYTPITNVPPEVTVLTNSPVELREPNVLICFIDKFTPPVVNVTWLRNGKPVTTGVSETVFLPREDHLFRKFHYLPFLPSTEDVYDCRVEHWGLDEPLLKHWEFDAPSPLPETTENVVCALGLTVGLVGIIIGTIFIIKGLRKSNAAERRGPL
HLA DRB1*04:01 = HLA DRB1*04:01 (Homo sapiens, UniProt P01903+P01911, A100K/A169T/F76Y/I96L/K127E/L162R/M171V/N62H/P40V/Q125Y/R42H/S133A/S149N/S66Y/V115G/V209L/W38E); assay: biochemical; format: binding; settings: binder threshold 1,000 nM, read-out: In vitro (IC50 nM) DRB1*04:01
HLA DRB1*03:01 = HLA DRB1*03:01 (Homo sapiens, UniProt P01903+P01911, A100K/A102G/A103R/A169T/F55Y/I96L/K41T/L162R/M171V/P40S/Q125H/Q178H/Q39Y/R42S/S66N/T106N/T262R/W38E/Y61H); assay: biochemical; format: binding; settings: binder threshold 1,000 nM, read-out: In vitro (IC50 nM) DRB1*03:01
HLA DRB1*03:01, sequence (P01903 26-254, other chains not shown): as the sequence (P01903 26-254 limits assumed, other chains not shown) above
HLA DRB1*01:01 = HLA DRB1*01:01 (Homo sapiens, UniProt P01903+P01911, A100R/D57E/F55L/F60I/F76Y/I96L/L162R/M171V/P40L/Q125E/R42F/V115G/Y59C); assay: biochemical; format: binding; settings: binder threshold 1,000 nM, read-out: In vitro (IC50 nM) DRB1*01:01
HLA DRB1*15:01 = HLA DRB1*15:01 (Homo sapiens, UniProt P01903+P01911); assay: biochemical; format: binding; settings: binder threshold 1,000 nM, read-out: In vitro (IC50 nM) DRB1*15:01
HLA DRB1*09:01 = HLA DRB1*09:01 (Homo sapiens, UniProt P01903+P01911, A100R/A103E/D57H/D86V/F55Y/F60I/F76Y/I96F/K127E/L162R/M171V/P40D/Q125H/Q99R/R33Q/R42F/S133A/S66N/T210M/V115G/W38K/Y107V/Y59G/Y89S); assay: biochemical; format: binding; settings: binder threshold 1,000 nM, read-out: In vitro (IC50 nM) DRB1*09:01
HLA DRB1*12:01 = HLA DRB1*12:01 (Homo sapiens, UniProt P01903+P01911, A100R/A169T/D57E/D86V/F55L/H45Y/K41T/L162R/M171V/P40S/Q125H/Q178H/Q39Y/Q99D/R42G/S66L/T262R/V114A/V67L/W38E/Y59H/Y61H/Y89S); assay: biochemical; format: binding; settings: binder threshold 1,000 nM, read-out: In vitro (IC50 nM) DRB1*12:01
HLA DRB1*11:01 = HLA DRB1*11:01 (Homo sapiens, UniProt P01903+P01911, A100R/A169T/A87E/I96F/K41T/L162R/M171V/P40S/Q125H/Q178H/Q39Y/Q99D/R42S/S66Y/T262R/V115G/W38E); assay: biochemical; format: binding; settings: binder threshold 1,000 nM, read-out: In vitro (IC50 nM) DRB1*11:01
HLA DRB1*11:01, sequence (P01903 26-254, other chains not shown): as the sequence (P01903 26-254 limits assumed, other chains not shown) above
HLA DRB1*08:02 = HLA DRB1*08:02 (Homo sapiens, UniProt P01903+P01911, A100R/A103L/A169T/F76Y/H45Y/I96F/K41T/L162R/M171V/P40S/Q125H/Q178H/Q39Y/Q99D/R218S/R42G/S66Y/V115G/W38E); assay: biochemical; format: binding; settings: binder threshold 1,000 nM, read-out: In vitro (IC50 nM) DRB1*08:02
HLA DRB1*07:01 = HLA DRB1*07:01 (Homo sapiens, UniProt P01903+P01911, A100R/A102G/A103Q/D57E/D86V/E43K/F76Y/K127E/L162R/M171V/P40G/Q125H/Q99D/R33Q/R42Y/R54Q/S133A/S66F/T210M/V115G/Y107V/Y59L/Y89S); assay: biochemical; format: binding; settings: binder threshold 1,000 nM, read-out: In vitro (IC50 nM) DRB1*07:01
HLA DRB1*04:05 = HLA DRB1*04:05 (Homo sapiens, UniProt P01903+P01911, A100R/A169T/D86S/F76Y/I96L/K127E/L162R/M171V/N62H/P40V/Q125Y/R42H/S133A/S149N/S66Y/V115G/V209L/W38E); assay: biochemical; format: binding; settings: binder threshold 1,000 nM, read-out: In vitro (IC50 nM) DRB1*04:05

CC(C)C[C@H](NC(=O)[C@H](CCCNC(=N)N)NC(=O)[C@H](Cc1ccc(O)cc1)NC(=O)[C@H](Cc1ccccc1)NC(=O)[C@H](CCCNC(=N)N)NC(=O)[C@H](Cc1c[nH]cn1)NC(=O)[C@H](CO)NC(=O)[C@H](CC(C)C)NC(=O)[C@H](CO)NC(=O)[C@@H](N)CS)C(=O)N[C@@H](C)C(=O)N[C@@H](CC(N)=O)C(=O)N[C@@H](CCC(=O)O)C(=O)N[C@@H](CS)C(=O)N[C@@H](C)C(=O)O [NSP12_130]
peptide-specific response, donor HH-N12-18, post COVID-19 ([1]; donor HH-N12-18, sample post COVID-19): 0
peptide-specific response, donor HH-N12-18, pre COVID-19 ([1]; donor HH-N12-18, sample pre COVID-19): 0
peptide-specific response, donor HH-N12-34, post COVID-19 ([1]; donor HH-N12-34, sample post COVID-19): 0.031
peptide-specific response, donor HH-N12-34, pre COVID-19 ([1]; donor HH-N12-34, sample pre COVID-19): 0.09
peptide-specific response, donor HH-N12-35, post COVID-19 ([1]; donor HH-N12-35, sample post COVID-19): 0
peptide-specific response, donor HH-N12-35, pre COVID-19 ([1]; donor HH-N12-35, sample pre COVID-19): 0
peptide-specific response, donor HH-N12-36, post COVID-19 ([1]; donor HH-N12-36, sample post COVID-19): 0.06
peptide-specific response, donor HH-N12-36, pre COVID-19 ([1]; donor HH-N12-36, sample pre COVID-19): 0
peptide-specific response, donor HH-N12-37, post COVID-19 ([1]; donor HH-N12-37, sample post COVID-19): 0.032
peptide-specific response, donor HH-N12-37, pre COVID-19 ([1]; donor HH-N12-37, sample pre COVID-19): 0
RF (response frequency), CD4+ T-cell response (CD4+ T cells): 26%
Alleles bound (11 DRB1-HLA molecules): 8

CC[C@H](C)[C@H](NC(=O)[C@@H]1CCCN1C(=O)[C@H](CCSC)NC(=O)[C@@H](N)CC(C)C)C(=O)N[C@@H](CC(C)C)C(=O)N[C@H](C(=O)N[C@@H](CC(C)C)C(=O)N[C@H](C(=O)N[C@@H](CCCNC(=N)N)C(=O)N[C@@H](C)C(=O)N[C@@H](CC(C)C)C(=O)N[C@H](C(=O)N[C@@H](C)C(=O)N[C@@H](CCC(=O)O)C(=O)N[C@@H](CO)C(=O)O)[C@@H](C)O)[C@@H](C)O)[C@@H](C)O [NSP12_49]
IC50 (HLA DRB1*13:02): 409 nM
IC50 (HLA DRB1*04:01): 20 nM
IC50 (HLA DRB1*03:01): 12100 nM
IC50 (HLA DRB1*01:01): 136 nM
IC50 (HLA DRB1*15:01): 37 nM
IC50 (HLA DRB1*09:01): 123 nM
IC50 (HLA DRB1*12:01): 131 nM
IC50 (HLA DRB1*11:01): 37 nM
IC50 (HLA DRB1*08:02): 283 nM
IC50 (HLA DRB1*07:01): 15 nM
IC50 (HLA DRB1*04:05): 367 nM

CC[C@H](C)[C@H](NC(=O)[C@@H](NC(=O)[C@@H]1CCCN1C(=O)[C@@H](NC(=O)[C@@H](NC(=O)[C@H](CC(N)=O)NC(=O)[C@H](CCCNC(=N)N)NC(=O)[C@H](CCCCN)NC(=O)[C@@H](NC(=O)[C@H](Cc1ccc(O)cc1)NC(=O)[C@H](C)NC(=O)[C@H](Cc1ccccc1)NC(=O)[C@H](CC(C)C)NC(=O)[C@H](C)N)[C@@H](C)O)C(C)C)[C@@H](C)CC)[C@@H](C)O)C(=O)N[C@H](C(=O)O)[C@@H](C)O [NSP12_106]
IC50 (HLA DRB1*13:02): 32 nM
IC50 (HLA DRB1*04:01): 3660 nM
IC50 (HLA DRB1*03:01): 709 nM
IC50 (HLA DRB1*01:01): 7360 nM
IC50 (HLA DRB1*15:01): 770 nM
IC50 (HLA DRB1*09:01): 52 nM
IC50 (HLA DRB1*12:01): 756 nM
IC50 (HLA DRB1*11:01): 6.6 nM
IC50 (HLA DRB1*08:02): 190 nM
IC50 (HLA DRB1*07:01): 1.6 nM
IC50 (HLA DRB1*04:05): 13000 nM

CC[C@H](C)[C@H](NC(=O)[C@H](CCSC)NC(=O)[C@H](CCSC)NC(=O)[C@H](CO)NC(=O)[C@H](Cc1ccccc1)NC(=O)[C@H](Cc1c[nH]cn1)NC(=O)[C@H](CCCCN)NC(=O)[C@H](CCCNC(=N)N)NC(=O)[C@H](CC(C)C)NC(=O)[C@H](Cc1ccc(O)cc1)NC(=O)[C@H](C)NC(=O)[C@@H](N)Cc1ccc(O)cc1)C(=O)N[C@@H](CC(C)C)C(=O)N[C@@H](CO)C(=O)N[C@@H](CC(=O)O)C(=O)O [Peptide 150]
IC50 (HLA DRB1*13:02): 755 nM
IC50 (HLA DRB1*04:01): 102 nM
IC50 (HLA DRB1*03:01): 5020 nM
IC50 (HLA DRB1*01:01): 495 nM
IC50 (HLA DRB1*15:01): 0.23 nM
IC50 (HLA DRB1*09:01): 4.8 nM
IC50 (HLA DRB1*12:01): 96 nM
IC50 (HLA DRB1*11:01): 7.9 nM
IC50 (HLA DRB1*08:02): 138 nM
IC50 (HLA DRB1*07:01): 0.73 nM
IC50 (HLA DRB1*04:05): 318 nM

CC(C)C[C@H](NC(=O)[C@H](CCCNC(=N)N)NC(=O)[C@H](Cc1ccc(O)cc1)NC(=O)[C@H](Cc1ccccc1)NC(=O)[C@H](CCCNC(=N)N)NC(=O)[C@H](Cc1c[nH]cn1)NC(=O)[C@H](CO)NC(=O)[C@H](CC(C)C)NC(=O)[C@H](CO)NC(=O)[C@H](CS)NC(=O)[C@H](CS)NC(=O)[C@@H](NC(=O)[C@@H](NC(=O)[C@H](Cc1c[nH]cn1)NC(=O)[C@@H](N)CCCCN)[C@@H](C)O)[C@@H](C)O)C(=O)O [NSP12_129]
IC50 (HLA DRB1*13:02): 1170 nM
IC50 (HLA DRB1*04:01): 613 nM
IC50 (HLA DRB1*03:01): 916 nM
IC50 (HLA DRB1*01:01): 279 nM
IC50 (HLA DRB1*15:01): 447 nM
IC50 (HLA DRB1*09:01): 286 nM
IC50 (HLA DRB1*12:01): 59 nM
IC50 (HLA DRB1*11:01): 235 nM
IC50 (HLA DRB1*08:02): 1010 nM
IC50 (HLA DRB1*07:01): 56 nM
IC50 (HLA DRB1*04:05): 644 nM

CC(C)C[C@H](NC(=O)[C@H](CCCNC(=N)N)NC(=O)[C@H](Cc1ccc(O)cc1)NC(=O)[C@H](Cc1ccccc1)NC(=O)[C@@H](N)CCCNC(=N)N)C(=O)N[C@@H](C)C(=O)N[C@@H](CC(N)=O)C(=O)N[C@@H](CCC(=O)O)C(=O)N[C@@H](CS)C(=O)N[C@@H](C)C(=O)N[C@@H](CCC(N)=O)C(=O)N[C@H](C(=O)N[C@@H](CC(C)C)C(=O)N[C@@H](CO)C(=O)N[C@@H](CCC(=O)O)C(=O)O)C(C)C [NSP12_131]
IC50 (HLA DRB1*13:02): 23800 nM
IC50 (HLA DRB1*04:01): 27 nM
IC50 (HLA DRB1*03:01): 8410 nM
IC50 (HLA DRB1*01:01): 53 nM
IC50 (HLA DRB1*15:01): 611 nM
IC50 (HLA DRB1*09:01): 48 nM
IC50 (HLA DRB1*12:01): 6320 nM
IC50 (HLA DRB1*11:01): 367 nM
IC50 (HLA DRB1*08:02): 2350 nM
IC50 (HLA DRB1*07:01): 279 nM
IC50 (HLA DRB1*04:05): 270 nM

Source: paper PMC10196118, “Evidence for broad cross-reactivity of the SARS-CoV-2 NSP12-directed CD4^+ T-cell response with pre-primed responses directed against common cold coronaviruses” (Frontiers in Immunology, 2023)
